Reference: US10597388B2, “Pyridazinone herbicides” (FMC CORPORATION, priority 2014, dated 2020)

What was measured:
Format in all cases: in vivo
[1] = tested on: wheat (winter wheat, Triticum aestivum); assay: Test C greenhouse herbicide test, pre- and postemergence
How it was run: (§1)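 Preemergence: seeds sown in a loam soil–sand blend and sprayed with test chemicals in a non-phytotoxic solvent mixture containing surfactant. Postemergence: plants grown in peat-based medium and treated at 2 to 18 cm (1- to 4-leaf stage). After 13 to 15 d in a greenhouse, injury was visually rated 0–100 against controls.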

[2] = tested on: ragweed (common ragweed, Ambrosia elatior); assay: as above
How it was run: as §1

[3] = tested on: corn (Zea mays); assay: as above
How it was run: as §1

[4] = tested on: foxtail, giant (giant foxtail, Setaria faberii); assay: as above
How it was run: as §1

[5] = tested on: crabgrass, large (large crabgrass, Digitaria sanguinalis); assay: as above
How it was run: as §1

[6] = tested on: soybean (Glycine max); assay: as above
How it was run: as §1

[7] = tested on: ryegrass, Italian (Italian ryegrass, Lolium multiflorum); assay: as above
How it was run: as §1

[8] = tested on: johnsongrass (Sorghum halepense); assay: as above
How it was run: as §1

[9] = tested on: lambsquarters (Chenopodium album); assay: as above
How it was run: as §1

[10] = tested on: pigweed (Amaranthus retroflexus); assay: as above
How it was run: as §1

[11] = tested on: morningglory (Ipomoea coccinea); assay: as above
How it was run: as §1

[12] = tested on: nutsedge, yellow (yellow nutsedge, Cyperus esculentus); assay: as above
How it was run: as §1

[13] = tested on: oilseed rape (Brassica napus); assay: as above
How it was run: as §1

[14] = tested on: waterhemp (common waterhemp, Amaranthus rudis); assay: as above
How it was run: as §1

[15] = tested on: blackgrass (Alopecurus myosuroides); assay: as above
How it was run: as §1

[16] = tested on: kochia (Kochia scoparia); assay: Test C greenhouse herbicide test, postemergence; settings: for Plant response rating, Kochia: Postemergence
How it was run: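 Visual injury scores (0–100, where 100 means complete control) were assigned 13 to 15 d after postemergence application, by comparison with untreated plants. Treated seedlings stood 2 to 18 cm tall, at the 1- to 4-leaf stage.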

[17] = Postemergence, 125 g ai/ha, scale 0 to 100, 0 is no effect, 100 is complete control
[18] = Postemergence, 250 g ai/ha, scale 0 to 100, 0 no effect, 100 complete control, 13 to 15 d
[19] = Preemergence, 31 g ai/ha, scale 0 to 100, 0 is no effect, 100 is complete control
[20] = Preemergence, 62 g ai/ha, scale 0 to 100, 0 is no effect, 100 is complete control
[21] = Preemergence, 125 g ai/ha, scale 0 to 100, 0 is no effect, 100 is complete control
[22] = Preemergence, 250 g ai/ha, scale 0 to 100 (0 no effect, 100 complete control)
[23] = postemergence, 62 g ai/ha, scale 0 to 100, 0 no effect, 100 complete control
[24] = Postemergence, 31 g ai/ha, 0 to 100 scale (0 no effect, 100 complete control)

COC(=O)Oc1c(C)nn(C)c(=O)c1-c1c(C)sc2c(C)cc(C)cc12 [Compound 81]
45: Plant response rating, Johnsongrass [8, 21] | Plant response rating, Oilseed Rape [13, 18]
85: Plant response rating, Ragweed [2, 18] | Plant response rating, Ragweed [2, 19] | Foxtail, Giant plant response rating [4, 23] | Ryegrass, Italian plant response rating [7, 23] | Plant response rating, Lambsquarters [9, 21] | Plant response rating, Pigweed [10, 17] | Pigweed plant response rating [10, 23] | Plant response rating, Morningglory [11, 20] | Nutsedge, Yellow plant response rating [12, 23] | Plant response rating, Oilseed Rape [13, 17] | Plant response rating, Waterhemp [14, 17] | Plant response rating, Waterhemp [14, 19] | Plant response rating, Waterhemp [14, 20] | Blackgrass plant response rating [15, 23]
40: Plant response rating, Crabgrass, Large [5, 17] | Plant response rating, Oilseed Rape [13, 21]
35: Crabgrass, Large plant response rating [5, 23]
5: Corn plant response rating [3, 23] | Plant response rating, Soybean [6, 17] | Plant response rating, Johnsongrass [8, 17] | Plant response rating, Johnsongrass [8, 20] | Johnsongrass plant response rating [8, 23] | Plant response rating, Oilseed Rape [13, 20]
70: Plant response rating, Ragweed [2, 17] | Plant response rating, Johnsongrass [8, 18] | Plant response rating, Nutsedge, Yellow [12, 20]
55: Plant response rating, Crabgrass, Large [5, 18]
20: Plant response rating, Corn [3, 21]
10: Plant response rating, Corn [3, 17] | Plant response rating, Corn [3, 20]
100: Foxtail, Giant plant response rating [4, 22] | Plant response rating, Soybean [6, 20] | Plant response rating, Lambsquarters [9, 18] | Pigweed plant response rating [10, 22] | Plant response rating, Morningglory [11, 17] | Morningglory plant response rating [11, 23] | Waterhemp plant response rating [14, 22]
30: Corn plant response rating [3, 22]
25: Plant response rating, Johnsongrass [8, 19]
75: Ragweed plant response rating [2, 23] | Plant response rating, Crabgrass, Large [5, 20] | Plant response rating, Lambsquarters [9, 19] | Kochia plant response rating [16, 23]
95: Plant response rating, Ragweed [2, 20] | Plant response rating, Ragweed [2, 21] | Lambsquarters plant response rating [9, 22] | Lambsquarters plant response rating [9, 23] | Plant response rating, Pigweed [10, 20] | Plant response rating, Pigweed [10, 21] | Morningglory plant response rating [11, 22] | Nutsedge, Yellow plant response rating [12, 22] | Oilseed Rape plant response rating [13, 22]
65: Oilseed Rape plant response rating [13, 23]
90: Plant response rating, Foxtail, Giant [4, 17] | Plant response rating, Foxtail, Giant [4, 18] | Plant response rating, Crabgrass, Large [5, 19] | Plant response rating, Crabgrass, Large [5, 21] | Plant response rating, Ryegrass, Italian [7, 17] | Plant response rating, Ryegrass, Italian [7, 18] | Plant response rating, Ryegrass, Italian [7, 20] | Plant response rating, Ryegrass, Italian [7, 21] | Ryegrass, Italian plant response rating [7, 22] | Plant response rating, Lambsquarters [9, 20] | Plant response rating, Pigweed [10, 18] | Plant response rating, Morningglory [11, 21] | Plant response rating, Nutsedge, Yellow [12, 17] | Plant response rating, Nutsedge, Yellow [12, 18] | Plant response rating, Waterhemp [14, 21] | Plant response rating, Blackgrass [15, 17] | Plant response rating, Blackgrass [15, 18] | Plant response rating, Blackgrass [15, 21] | Blackgrass plant response rating [15, 22]
80: Plant response rating, Foxtail, Giant [4, 19] | Plant response rating, Ryegrass, Italian [7, 19] | Plant response rating, Morningglory [11, 19] | Plant response rating, Nutsedge, Yellow [12, 21] | Plant response rating, Waterhemp [14, 18] | Plant response rating, Blackgrass [15, 20] | Plant response rating, Kochia ([16]; 125 g ai/ha, scale 0 to 100, 0 is no effect, 100 is complete control) | Plant response rating, Kochia ([16]; 250 g ai/ha, scale 0 to 100, 0 no effect, 100 complete control, 13 to 15 d)
0: Plant response rating, Wheat [1, 17] | Plant response rating, Wheat [1, 18] | Plant response rating, Wheat [1, 19] | Plant response rating, Wheat [1, 20] | Plant response rating, Wheat [1, 21] | Wheat plant response rating [1, 22] | Wheat plant response rating [1, 23] | Corn plant response rating [3, 24] | Plant response rating, Corn [3, 18] | Plant response rating, Corn [3, 19] | Plant response rating, Soybean [6, 18] | Plant response rating, Soybean [6, 19] | Plant response rating, Soybean [6, 21] | Soybean plant response rating [6, 22] | Soybean plant response rating [6, 23] | Plant response rating, Oilseed Rape [13, 19]
98: Ragweed plant response rating [2, 22] | Plant response rating, Foxtail, Giant [4, 20] | Plant response rating, Foxtail, Giant [4, 21] | Crabgrass, Large plant response rating [5, 22] | Johnsongrass plant response rating [8, 22] | Plant response rating, Lambsquarters [9, 17] | Plant response rating, Pigweed [10, 19] | Plant response rating, Morningglory [11, 18]
60: Plant response rating, Nutsedge, Yellow [12, 19] | Waterhemp plant response rating [14, 23] | Blackgrass plant response rating [15, 24] | Plant response rating, Blackgrass [15, 19]
